Assay results: patent publication US4582821A, “Inhibition of cyclic nucleotide independent protein kinases” (E. I. Du Pont de Nemours and Company, priority 1983, dated 1986)
Peptide text beside a SMILES is read from it. * marks the point of attachment. Cbz = O=C(OCc1ccccc1)*; CH2Cl = ClC*

What was measured:
A-431 cell EGF receptor = target: T1, A-431 cell EGF receptor (Homo sapiens, UniProt P00533); experiment: Protein phosphorylation of A-431 cell membrane EGF receptors (intact membranes, EGF present); type: biochemical; settings: 600 nmoles/mg protein, intact A-431 membranes
T1 construct: intact A-431 cell membranes were employed, rather than solubilized extracts; endogenous in cells; host or cells: A-431 human epidermoid carcinoma cells (plasma membranes)
Protocol: Protein phosphorylation assays were conducted substantially as described by Carpenter et al., J. Biol. Chem. 254:4884 (1979). Each assay mixture contained, in a final volume of 70 μL: 20 mM Hepes, pH 7.4, 0.01% bovine serum albumin (BSA), 15-150 μg protein in Triton extract, 100 ng EGF, 1 mM MnCl2 and 10-20 μM [γ-^32 P] ATP (2-4 μCi). Peptide halomethyl ketones were added as solutions in ethanol; an equivalent volume of ethanol was added to controls. Assay mixtures were incubated at about 23° for ten minutes, with or without added EGF. Mixtures were then held at 0° for ten minutes before initiation of phosphorylation by addition of 15 μM γ-^32 P) ATP (2 μCi). Reactions were terminated after 3 minutes at 0° by applying an aliquot of the assay mixture to a Whatman 3MM filter paper (2×2 cm), which was then suspended in ice-cold 10% trichloroacetic acid containing 10 mM pyrophosphate. This suspension was gently shaken for a period of 1 hour, during which the trichloroacetic acid/pyrophosphate mixture was changed three times. Finally, the filter papers were dried and radioactivity measured by scintillation counting.
Assays were conducted substantially as described above, except intact A-431 cell membranes were employed, rather than solubilized extracts, and assay mixtures contained 1 mM ouabain. In these Examples, reactions were permitted to proceed for 6 minutes. This technique is substantially similar to that disclosed by Navarro et al., Biochemistry, 21:6138 (1982).

lymphoma cell line YAC-1 = experiment: Tumor cell line growth inhibition, YAC-1; type: cell-based
Protocol: (§1) In this series of experiments, the tumor cell growth inhibitory capacity of various peptide halomethyl ketones was tested against lymphoma cell lines YAC-1 and MOLT-4, and against an erythroleukemia cell line, K-562. The lymphoma cell line YAC-1 is described by Kiessling, et al., Eur. J. Immunol. 5:112 (1975), and MOLT-4 is described by Minowada, et al., J. Natl. Cancer Inst. 49:891 (1972) and Nilsson, et al., Int. J. Cancer 15:321 (1975). The erythroleukemia cell line K-562 is described by Lozzio, et al., Leuk. Res. 3:363 (1979). In these experiments, cells were grown on standard media as 10 mL suspension cultures. Initial cell density was 10^5 cells/mL. At day 0, test compounds were introduced in ethanol; control cultures received an equal volume of ethanol. Cells were counted at the times indicated.

[1] = tested on: lymphoma cell line MOLT-4; experiment: Tumor cell line growth inhibition, MOLT-4; type: cell-based
Protocol: as §1

[2] = tested on: erythroleukemia cell line K-562; experiment: Tumor cell line growth inhibition, K-562; type: cell-based
Protocol: as §1

T1 sequence (P00533 25-1210): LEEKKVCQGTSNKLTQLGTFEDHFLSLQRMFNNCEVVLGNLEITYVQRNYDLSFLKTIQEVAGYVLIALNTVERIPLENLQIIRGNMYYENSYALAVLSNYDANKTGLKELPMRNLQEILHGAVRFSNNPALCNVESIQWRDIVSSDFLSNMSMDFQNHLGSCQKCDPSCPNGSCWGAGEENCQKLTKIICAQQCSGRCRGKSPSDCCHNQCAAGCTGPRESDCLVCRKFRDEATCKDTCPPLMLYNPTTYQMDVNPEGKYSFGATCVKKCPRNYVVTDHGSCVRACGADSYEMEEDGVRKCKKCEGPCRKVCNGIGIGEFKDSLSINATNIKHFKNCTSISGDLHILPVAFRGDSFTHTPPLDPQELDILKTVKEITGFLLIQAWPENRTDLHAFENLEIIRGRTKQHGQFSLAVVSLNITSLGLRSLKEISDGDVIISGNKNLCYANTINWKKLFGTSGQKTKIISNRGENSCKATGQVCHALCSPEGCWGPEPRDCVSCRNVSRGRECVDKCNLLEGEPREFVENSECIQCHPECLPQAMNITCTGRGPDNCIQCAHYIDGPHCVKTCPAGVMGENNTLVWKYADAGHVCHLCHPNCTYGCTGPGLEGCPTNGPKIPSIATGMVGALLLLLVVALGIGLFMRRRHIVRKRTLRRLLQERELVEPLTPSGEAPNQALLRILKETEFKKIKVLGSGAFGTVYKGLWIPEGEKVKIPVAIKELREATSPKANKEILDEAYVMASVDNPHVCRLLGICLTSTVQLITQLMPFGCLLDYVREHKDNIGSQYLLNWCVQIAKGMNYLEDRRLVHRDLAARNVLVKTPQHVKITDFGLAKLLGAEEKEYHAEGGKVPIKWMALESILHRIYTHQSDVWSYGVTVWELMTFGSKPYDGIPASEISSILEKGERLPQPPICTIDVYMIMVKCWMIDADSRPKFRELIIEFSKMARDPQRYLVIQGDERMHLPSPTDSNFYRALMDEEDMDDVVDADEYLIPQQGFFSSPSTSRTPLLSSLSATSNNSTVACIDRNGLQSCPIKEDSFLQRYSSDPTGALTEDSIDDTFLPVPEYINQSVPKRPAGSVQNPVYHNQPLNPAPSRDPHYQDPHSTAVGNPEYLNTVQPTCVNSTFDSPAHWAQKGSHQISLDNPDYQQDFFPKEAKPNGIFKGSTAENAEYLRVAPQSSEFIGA

SMILES	% inhibition (A-431 cell EGF receptor) [%]	% Growth Relative to Control Cultures (lymphoma cell line YAC-1; 0.4 μg/mL, day 2) [%]	% Growth Relative to Control Cultures (lymphoma cell line YAC-1; 2.0 μg/mL, day 2) [%]	% Growth Relative to Control Cultures (lymphoma cell line YAC-1; 2.0 μg/mL, day 7) [%]	% Growth Relative to Control Cultures (lymphoma cell line YAC-1; 10. μg/mL, day 1) [%]	% Growth Relative to Control Cultures (lymphoma cell line YAC-1; 10. μg/mL, day 2) [%]	% Growth Relative to Control Cultures (lymphoma cell line YAC-1; 10. μg/mL, day 4) [%]	% Growth Relative to Control Cultures (lymphoma cell line YAC-1; 10. μg/mL, day 7) [%]	% Growth Relative to Control Cultures ([1]; 0.4 μg/mL, day 2) [%]	% Growth Relative to Control Cultures ([1]; 2.0 μg/mL, day 2) [%]	% Growth Relative to Control Cultures ([1]; 10. μg/mL, day 1) [%]	% Growth Relative to Control Cultures ([1]; 10. μg/mL, day 2) [%]	% Growth Relative to Control Cultures ([1]; 10. μg/mL, day 3) [%]	% Growth Relative to Control Cultures ([1]; 10. μg/mL, day 4) [%]	% Growth Relative to Control Cultures ([1]; 10. μg/mL, day 7) [%]	% Growth Relative to Control Cultures ([2]; 0.4 μg/mL, day 2) [%]	% Growth Relative to Control Cultures ([2]; 2.0 μg/mL, day 2) [%]	% Growth Relative to Control Cultures ([2]; 10. μg/mL, day 2) [%]	% Growth Relative to Control Cultures ([2]; 10. μg/mL, day 3) [%]	% Growth Relative to Control Cultures ([2]; 10. μg/mL, day 4) [%]	further results
CC(C)C[C@H](NC(=O)[C@H](CO)NC(=O)CNC(=O)[C@H](Cc1ccccc1)NC(=O)OCc1ccccc1)C(=O)CCl [Z--Phe-Gly-Ser-LeuCH2 Cl, Z-Phe-Gly-Ser-LeuCH2 Cl] (Cbz-FGSL-CH2Cl)	54	63	80	75	62	40	40	64	40	27	38	17	76	29	49	28	13	14	17	20	% Growth Relative to Control Cultures (lymphoma cell line YAC-1; 0.4 μg/mL, day 3): 68%; % Growth Relative to Control Cultures (lymphoma cell line YAC-1; 0.4 μg/mL, day 4): 74%; % Growth Relative to Control Cultures (lymphoma cell line YAC-1; 0.4 μg/mL, day 7): 61%; % Growth Relative to Control Cultures (lymphoma cell line YAC-1; 2.0 μg/mL, day 3): 60%; % Growth Relative to Control Cultures (lymphoma cell line YAC-1; 2.0 μg/mL, day 4): 66%; % Growth Relative to Control Cultures ([1]; 0.4 μg/mL, day 1): 77%; % Growth Relative to Control Cultures ([1]; 2.0 μg/mL, day 1): 42%; % Growth Relative to Control Cultures ([1]; 2.0 μg/mL, day 3): 87%; % Growth Relative to Control Cultures ([1]; 2.0 μg/mL, day 4): 74%; % Growth Relative to Control Cultures ([2]; 0.4 μg/mL, day 3): 27%; % Growth Relative to Control Cultures ([2]; 0.4 μg/mL, day 4): 49%; % Growth Relative to Control Cultures ([2]; 0.4 μg/mL, day 7): 81%; % Growth Relative to Control Cultures ([2]; 2.0 μg/mL, day 1): 66%; % Growth Relative to Control Cultures ([2]; 2.0 μg/mL, day 3): 38%; % Growth Relative to Control Cultures ([2]; 2.0 μg/mL, day 4): 40%; % Growth Relative to Control Cultures ([2]; 10. μg/mL, day 7): 65%
CC(C)C[C@H](NC(=O)[C@H](C)NC(=O)[C@H](CO)NC(=O)[C@H](Cc1ccccc1)NC(=O)OCc1ccccc1)C(=O)CCl [Z--Phe-Ser-Ala-LeuCH2 Cl, Z-Phe-Ser-Ala-LeuCH2 Cl] (Cbz-FSAL-CH2Cl)	44	49	53	76	63	21	16	17	80	85	64	16	4	2	11	66	72	4	2	4	% Growth Relative to Control Cultures (lymphoma cell line YAC-1; 0.4 μg/mL, day 1): 58%; % Growth Relative to Control Cultures (lymphoma cell line YAC-1; 2.0 μg/mL, day 1): 53%; % Growth Relative to Control Cultures (lymphoma cell line YAC-1; 10. μg/mL, day 3): 16%; % Growth Relative to Control Cultures ([2]; 0.4 μg/mL, day 1): 82%; % Growth Relative to Control Cultures ([2]; 10. μg/mL, day 1): 44%; % Growth Relative to Control Cultures ([2]; 10. μg/mL, day 7): 7%
